In publication PMC6733935, “A convenient and efficient total solid-phase synthesis of DOTA-functionalized tumor-targeting peptides for PET imaging of cancer” (EJNMMI Research, 2019):
Where two headings read alike, the source gives them in different places. Square brackets hold non-standard residues; d marks the D form. Peptide text beside a SMILES is read from it. * marks the point of attachment. DOTA = O=C(O)CN1CCN(CC(=O)O)CCN(CC(=O)*)CCN(CC(=O)O)CC1; Cha = N[C@@H](CC1CCCCC1)C(=O)O; Nle = CCCC[C@H](N)C(=O)O; Ahx = NCCCCCC(=O)O

How the values were obtained:
[1] = system: PC3 prostate carcinoma xenografts; type: in vivo, nude mice; details: for uptake in the PC3 tumors / tumor-to-blood ratio / tumor-to-muscle ratio: nude mice bearing PC3 xenografts
Protocol: BN/GRP receptor-positive MDA-MB-231 and PC3 cell lines (American Type Culture Collection, Rockville, USA) were grown as monolayers at 37 °C in a humidified atmosphere containing RPMI-1640 culture media with 10% fetal bovine serum (FBS) in tissue culture flasks. Twenty-four hours prior to conducting the tumor implantation, the media was replaced with RPMI-1640/10% FBS. The cells were grown to 80-90% confluency and harvested by trypsinization. After centrifugation, about 50 million cells were suspended in 1 mL media for implantation into mice. To prepare cells for inoculation, MDA-MB-231 or PC3 cancer cells with media were centrifuged, the media decanted, and the cell pellet was mixed with phosphate-buffered saline (PBS) to reach a concentration of approximately 5 million cells per 100 μL PBS.
Based on encouraging biological and tumor-targeting properties, ^68Ga-DOTA(cyclen)-Ahx-BN was further tested in nude mice bearing PC3 prostate carcinoma xenografts. […] Kidney was the only major organ which retained most of the radioactivity (up to 6% ID/g) after 2 h p.i. […] The tumor-to-blood and tumor-to-muscle ratios were 3.27 and 12.62 at 1 h and 2.85 and 11.40 at 2 h p.i., respectively (data not shown).

[2] = system: MDA-MB-231 tumor; test: NanoPET/CT imaging of MDA-MB-231 tumor-bearing nude mice; type: in vivo; details: 60 min p.i.
Protocol: PET/CT scans were performed using a preclinical NanoPET/CT scanner (Mediso, Hungary) on MDA-MB-231 tumor-bearing ~ 8-week-ld female nude mice. Mice (19–23 g) were anesthetized prior to the imaging with a mixture of (100 μL, subcutaneous injection) ketamine and xylazine. One hour after the intravenous injection of radiolabeled BN peptide (100 μL peptide, 100–150 μCi, total peptide dose ~ 100 ng) via the tail vein into the anesthetized mouse, each mouse was placed in the camera in prone position and static image was acquired for 30 min. The acquired raw data in these imaging studies were reconstructed to visible image form using Interveiw Fusion software (Mediso, Hungary).

Which “radioactivity retained in Kidney” value ([1]; mouse, in vivo) does the source give for `CCCC[C@H](NC(=O)[C@H](Cc1c[nH]cn1)NC(=O)[C@H](CC1CCCCC1)NC(=O)[C@@H](NC(=O)[C@H](C)NC(=O)[C@H](Cc1c[nH]c2ccccc12)NC(=O)[C@H](CCC(N)=O)NC(=O)[C@H](CS)NC(=O)CNC(=O)CNC(=O)CCCCCNC(=O)CN1CCN(CC(=O)O)CCN(CC(=O)O)CCN(CC(=O)O)CC1)C(C)C)C(=O)N[C@@H](CCSC)C(N)=O` [^68Ga-DOTA-Ahx-BN Cyclen, metal not drawn] ({DOTA-Ahx}-GGCQWAV[Cha]H[Nle]M-NH2) here?
Its value is “up to 6 % ID/g”.

And the “uptake in the PC3 tumors” value ([1]; 1 h p.i.)?
The value was 2.05 ± 0.54 % ID/g.

And the tumor-to-blood ratio ([1]; 1 h p.i. (data not shown))?
The tumor-to-blood ratio was 3.27.

And the tumor-to-muscle ratio ([1]; 1 h p.i. (data not shown))?
Its tumor-to-muscle ratio is 12.62.

And the “uptake in the PC3 tumors” value ([1]; 2 h p.i.)?
The value was 1.34 ± 0.22 % ID/g.

What about the tumor-to-blood ratio ([1]; 2 h p.i. (data not shown)) of the same compound?
The tumor-to-blood ratio was 2.85.

What about the tumor-to-muscle ratio ([1]; 2 h p.i. (data not shown)) of the same compound?
The tumor-to-muscle ratio was 11.40.

And the “Tumor visibility in PET image under blocking condition” value ([2]; in the presence of 300 μg cold BN peptide)?
Its value is “hardly detectable”.

What about the “Tumor visibility in PET image” value ([2]; ~100 ng, ~100 μCi, unblocked) of the same compound?
The value was “clearly visible”.
